The values below come from the Deep4Chem optical property database.

The series in a line: solvent given as SMILES.

The molecule `COc1ccccc1C1=[N+]2C(=C(c3ccccc3)c3c4ccccc4c(-c4ccccc4OC)n3[B-]2(F)F)c2ccccc21` came in with a fluorescence lifetime (in ClCCl) of 5.8 ns.

`COc1cc(OC)c2cc(-c3ccccc3CC#N)c(=O)oc2c1` registered a fluorescence lifetime (in ClC(Cl)Cl) of 2.8 ns.

Where the note is “in CC#N”, `Cc1c[nH]c(=O)[nH]c1=O` displayed a fluorescence lifetime of 0.0002 ns.

`c1csc(-c2ccc(-c3cccs3)s2)c1`: the fluorescence lifetime by setting is: (in CC#N) 0.2 ns; (in ClCCl) 0.17 ns.

Molecule `Cc1ccc(-c2ccc(-c3ccc(-c4ccc(C)cc4)cc3/C(=C(/c3ccccc3)c3cc(-c4ccc(C)cc4)ccc3-c3ccc(-c4ccc(C)cc4)cc3)c3ccccc3)cc2)cc1` returned a fluorescence lifetime (in C1CCOC1) of 8.6 ns.

Consider `CC1(C)c2ccccc2N(c2ccccc2)c2ccc(S(=O)(=O)c3ccc4c(c3)C(C)(C)c3ccccc3N4c3ccccc3)cc21`, for which, for the setting “in O=P(c1ccccc1)(c1ccccc1)c1ccccc1Oc1ccccc1P(=O)(c1ccccc1)c1ccccc1”, the fluorescence lifetime amounted to 2.06 ns.

On to `c1ccc2c(-n3c(-c4ccc(-c5ccc(-c6nc7c8ccccc8c8ccccc8c7n6-c6cccc7ccccc67)c6ccccc56)c5ccccc45)nc4c5ccccc5c5ccccc5c43)cccc2c1`, for which, under “in ClCCl”, the fluorescence lifetime worked out at 1.87 ns.

The molecule `Fc1ccc(N(c2ccccc2)c2ccc3ccc4c(N(c5ccccc5)c5ccc(F)cc5)ccc5ccc2c3c54)cc1` showed a fluorescence lifetime (in ClCCl) of 5.5 ns.

With `Oc1ccccc1/C=N/c1ccccc1/N=C/c1ccccc1O`, the fluorescence lifetime (in CC#N) amounted to 0.0089 ns.

In the case of `COc1nnc(Cl)nn1`, the fluorescence lifetime (in ClCCl) was found to be 160 ns.

Regarding `CC(C)(C)c1ccc(N(c2ccccc2)c2ccc3ccc4c(N(c5ccccc5)c5ccc(C(C)(C)C)cc5)ccc5ccc2c3c54)cc1`, where the note is “in ClCCl”, the fluorescence lifetime worked out at 6.2 ns.

`Cc1ccc(-c2ccccc2)cc1`: the fluorescence lifetime (in C1CCCCC1) stood at 20 ns.

Consider `CCCCC(CC)Cn1c2cc(C#N)ccc2c2cc(-c3ccc(N(c4ccccc4)c4ccccc4)cc3)c(C#N)cc21` (stereo unspecified), for which, under “in ClCCl”, the fluorescence lifetime was determined as 7.59 ns.

As for `COc1ccc(N(c2ccccc2)c2ccc3ccc4c(N(c5ccccc5)c5ccc(OC)cc5)ccc5ccc2c3c54)cc1`, the fluorescence lifetime (in ClCCl) was determined as 9 ns.

On to `CC1=CC(C)=[N+]2C1=Cc1c3ccccc3c(C#Cc3ccsc3)n1[B-]2(F)F`, for which the fluorescence lifetime is 5.54 ns (in CCCCCC), 4.91 ns (in CCCCCCCCO), 5.21 ns (in CCOC(C)=O) and 4.8 ns (in CN(C)C=O).

`N#Cc1cc(N2c3ccccc3Oc3ccccc32)cc(N2c3ccccc3Oc3ccccc32)c1` gave a fluorescence lifetime (in Cc1ccccc1) of 26.1 ns.

In the case of `COc1ccc(C2=Cc3ccccc3P2(=O)c2ccccc2)cc1` (stereo unspecified), where the note is “in ClCCl”, the fluorescence lifetime is 6.4 ns.

Regarding `Cc1c(C)c(B(c2c(C)c(C)c(N3c4ccccc4Oc4ccccc43)c(C)c2C)c2c(C)c(C)c(N3c4ccccc4Oc4ccccc43)c(C)c2C)c(C)c(C)c1C#N`, the fluorescence lifetime (in c1ccc([Si](c2ccccc2)(c2ccc(-n3c4ccccc4c4ccccc43)cc2)c2ccc(-n3c4ccccc4c4ccccc43)cc2)cc1) was 18 ns.

Turning to `NCCCCCCCCCCCCN1C(=O)c2ccc3c4ccc5c6c(ccc(c7ccc(c2c37)C1=O)c64)C(=O)N(CCCCCCCCCCCCN)C5=O`, for the setting “in CN(C)C=O”, the fluorescence lifetime turned out to be 4.1 ns.

Turning to `Nc1nc2ccc(Br)cc2s1`, the fluorescence lifetime (in CC#N) was 1.91 ns and the fluorescence lifetime (in ClCCl) was found to be 1.37 ns.

`Cc1ccc(C2=C3C=CC(C#Cc4ccccc4)=[N+]3[B-](F)(F)n3c(C#Cc4ccccc4)ccc32)cc1` returned a fluorescence lifetime (in C1CCCCC1) of 6.58 ns; a fluorescence lifetime (in C1CCOC1) of 6.62 ns; a fluorescence lifetime (in C1COCCO1) of 6.44 ns; a fluorescence lifetime (in CCOC(C)=O) of 6.74 ns; a fluorescence lifetime (in CO) of 6.51 ns; a fluorescence lifetime (in Cc1ccccc1) of 6.18 ns. Moreover, under “in ClC(Cl)Cl”, the fluorescence lifetime is 6.66 ns.

In the case of `CN(C)c1ccc(/C=C/c2cc[n+](CCCCCCCCCCCC[n+]3ccc(/C=C/c4ccc(N(C)C)cc4)cc3)cc2)cc1`, for the setting “in ClC(Cl)Cl”, the fluorescence lifetime was 0.203 ns.

For `c1ccc(-c2cc3c(-c4ccccc4)c4cccc5c(-c6ccccc6)cc6c(-c7ccccc7)c7cccc2c7c3c6c54)cc1`, the fluorescence lifetime (in ClCCl) came out at 2.97 ns.

As for `Cc1ccc(C2=C3C=CC=[N+]3[B-](F)(F)n3cccc32)cc1`, the fluorescence lifetime was 0.34 ns (in C1CCCCC1); 0.196 ns (in CC#N); 0.253 ns (in CCO); 0.237 ns (in CCOC(C)=O); 0.197 ns (in CO); 0.323 ns (in OCC(F)(F)F).

In the case of `CCN(CC)c1ccc2cc(C#N)c(=O)oc2c1`, for the setting “in ClCCl”, the fluorescence lifetime was found to be 2.7 ns.

`F[B-]1(F)OC(c2ccc(C(F)(F)F)cc2)=Cc2c3ccccc3cc[n+]21` registered a fluorescence lifetime (in ClC(Cl)Cl) of 0.14 ns.

On to `COc1cc(N(c2ccccc2)c2ccccc2)ccc1C=C(C#N)C#N`, for which the fluorescence lifetime (in C1COCCO1) was found to be 0.04 ns; the fluorescence lifetime (in CC#N) was determined as 0.02 ns; the fluorescence lifetime (in CC(C)=O) was found to be 0.05 ns; the fluorescence lifetime (in CCOC(C)=O) was found to be 0.07 ns; the fluorescence lifetime (in CN(C)C=O) worked out at 0.03 ns; the fluorescence lifetime (in CO) is 0.02 ns. Moreover, the fluorescence lifetime by setting is: (in Cc1ccccc1) 0.03 ns; (in ClC(Cl)Cl) 0.1 ns; (in ClCCl) 0.06 ns.

Take `CC1(C)c2ccccc2N(c2ccc(-c3ncc(C#N)cn3)cc2)c2ccccc21`: where the note is “in N#Cc1ccc2c(c1)c1ccccc1n2-c1cccc(-n2c3ccccc3c3ccccc32)c1”, the fluorescence lifetime was found to be 23.7 ns.

`CN(C)c1ccc(C2=Nc3sc4c(F)c(F)c(F)c(F)c4[n+]3[B-](F)(F)O2)cc1` returned a fluorescence lifetime (in Cc1ccccc1) of 2 ns.

Consider `COc1nc(Nc2ccc3cc4ccccc4cc3c2)nc(OC)n1`, for which the fluorescence lifetime runs as follows: (in C1COCCO1) 12.2 ns; (in CCOC(C)=O) 8.2 ns.

The molecule `c1cc2c3c(c1)-c1ccc4c5c(ccc(c15)B3c1ccc3c5c(ccc-2c15)CC3)CC4` returned a fluorescence lifetime (in Cc1ccccc1) of 5.28 ns.

`COc1ccc(/C=C/C2=CC(/C=C/c3ccc(OC)cc3)=[O+][B-](F)(F)O2)cc1` yielded a fluorescence lifetime (in CC#N) of 1.55 ns; a fluorescence lifetime (in CC(C)=O) of 1.49 ns; a fluorescence lifetime (in CCOC(C)=O) of 0.88 ns; a fluorescence lifetime (in CCOCC) of 0.7 ns; a fluorescence lifetime (in ClC(Cl)(Cl)Cl) of 0.5 ns; a fluorescence lifetime (in ClCCl) of 1.3 ns.

Turning to `CCC1(CC)c2cc(-c3cccs3)ccc2-c2c1c1c(c3c2C(CC)(CC)c2cc(-c4cccs4)ccc2-3)C(CC)(CC)c2cc(-c3cccs3)ccc2-1`, under “in C1CCOC1”, the fluorescence lifetime stood at 2.1 ns.

Molecule `CCc1c(C)[nH]c(C2=[N+]3C(=Cc4c(C)c(CC)c(/C=C/c5ccc(N(C)C)cc5)n4[B-]3(F)F)c3ccccc32)c1C` returned a fluorescence lifetime (in ClCCl) of 2.3 ns.

Take `CCN(CC)c1ccc(/N=N/c2nc3ccc(Br)cc3s2)cc1`: the fluorescence lifetime is, setting by setting: (in CC#N) 3.03 ns; (in ClCCl) 2.75 ns.

With `Cc1ccc(-c2cc(-c3ccc(N(C)C)cc3)c3c(N)nc(N4CCCC4)c(C#N)c3n2)cc1`, the fluorescence lifetime was 7.3 ns (in CC#N); 10.3 ns (in CC(C)=O); 11.2 ns (in CC(C)O); 3.6 ns (in CO); 11.5 ns (in ClC(Cl)Cl); 12.6 ns (in ClCCl). The fluorescence lifetime (in c1ccccc1) turned out to be 10.7 ns.

Turning to `CCCCCCCCCCCCCCCCOc1cc(C#Cc2ccc3ccccc3c2)c(OCCCCCCCCCCCCCCCC)cc1C#Cc1ccc(C=C(C#N)C#N)cc1`, the fluorescence lifetime runs as follows: (in Brc1ccccc1) 2.82 ns; (in C1CCCCC1) 1.92 ns; (in C1CCOC1) 0.98 ns; (in C1COCCO1) 3.1 ns; (in CCCCCC) 1.97 ns; (in CCCCCCCCO) 0.62 ns. Besides, the fluorescence lifetime by setting is: (in CCCCOCCCC) 2.73 ns; (in CCOC(C)=O) 1.05 ns; (in CCOCC) 3.33 ns; (in Cc1ccccc1) 2.53 ns; (in ClC(Cl)(Cl)Cl) 1.94 ns; (in ClC(Cl)Cl) 2.26 ns. The fluorescence lifetime (in ClCCl) stood at 0.63 ns.

Take `Cc1nc2c(ccc3ccc(O)cc32)oc1=O`: the fluorescence lifetime (in c1ccccc1) was 3.9 ns.

On to `O=C1CCCc2c1[nH]c1cc3c(cc21)OCO3`, for which the fluorescence lifetime (in C1CCOC1) was 0.442 ns; the fluorescence lifetime (in C1COCCO1) is 0.481 ns; the fluorescence lifetime (in CC#N) came to 0.978 ns; the fluorescence lifetime (in CCCCCCCCCCCCO) was 1.36 ns; the fluorescence lifetime (in CCCCCCCCCCO) amounted to 1.28 ns; the fluorescence lifetime (in CCCCCCCCO) was determined as 1.25 ns. Also, the fluorescence lifetime is 1.22 ns (in CCCCCCO); 1.12 ns (in CCCCO); 1.36 ns (in CCO); 0.476 ns (in CCOC(C)=O); 0.838 ns (in CN(C)C=O); 1.78 ns (in CO). This molecule had a fluorescence lifetime (in CS(C)=O) of 1.43 ns, a fluorescence lifetime (in O) of 2.29 ns and a fluorescence lifetime (in c1ccccc1) of 0.466 ns.

With `CCCCCCCCN1c2ccc(C#Cc3ccc(C(F)(F)F)cc3)cc2Sc2cc(C=O)ccc21`, the fluorescence lifetime by setting is: (in C1CCOC1) 8.1 ns; (in CC#N) 6.52 ns; (in CCCCCC) 6.45 ns; (in CO) 4.04 ns; (in CS(C)=O) 7.77 ns; (in Cc1ccccc1) 7.43 ns. Besides, the fluorescence lifetime (in ClC(Cl)Cl) is 7.03 ns.

Take `N#Cc1c(-n2c3ccccc3c3cc(I)ccc32)c(-n2c3ccccc3c3cc(I)ccc32)c(C#N)c(-n2c3ccccc3c3cc(I)ccc32)c1-n1c2ccccc2c2cc(I)ccc21`: the fluorescence lifetime (in Cc1ccccc1) worked out at 0.3 ns.

For `c1cc2ccc3ccc4cc3c2cc1c1ccc2ccc3ccc(cc3c2c1)c1ccc2ccc3ccc4cc3c2c1`, the fluorescence lifetime (in Cc1ccccc1) is 6.5 ns.

As for `CN(C)c1ccc2c(-c3ccc(N)cc3C(=O)[O-])c3ccc(=[N+](C)C)cc-3oc2c1`, the fluorescence lifetime reads like this: (in CCO) 3.19 ns; (in O) 2.23 ns.

`CC1=[N+]2C(=C(c3ccc(C#N)cc3)c3ccc(C)n3[B-]2(F)F)C=C1` yielded a fluorescence lifetime (in Cc1ccccc1) of 0.55 ns.

The molecule `CC(C)(C)C#Cc1ccc2c3cccc4cccc(c5cccc1c52)c43` had a fluorescence lifetime (in C1CCCCC1) of 4.3 ns.

For `CCCCCCCC[n+]1ccc(-c2cc[n+](CCCCCCCC)cc2)cc1`, under “in CC#N”, the fluorescence lifetime was found to be 1 ns.
